Results taken from the supplement of paper PMC8882468.

The compounds below were run on HCI-023 (organoid from a triple-negative breast cancer xenograft) (assay: CTG-3D luminescence at 96 h relative to day-0 seeding control (ratio to day 0); higher = more growth / less cytotoxicity; PDxO 3D drug screen (set 2), 96 h, CTG-3D normalised to day-0 seeding control.). Conditions: 0.005 µM; days in culture: 252.

| Compound | CTG-3D luminescence at 96 h |
| --- | --- |
| CCOc1ccn(-c2ccc(F)cc2)c(=O)c1C(=O)Nc1ccc(Oc2ccnc(N)c2Cl)c(F)c1 [ASLAN002] | 1.78 |
| C[C@@H](Nc1cc(F)cc(F)c1)c1cc(C(=O)N(C)C)cc2c(=O)cc(N3CCOCC3)oc12 [AZD-8186] | 1.63 |
| COc1cccc2c1C(=O)c1c(O)c3c(c(O)c1C2=O)C[C@@](O)(C(=O)CO)C[C@@H]3O[C@H]1C[C@H](N)[C@@H](O)[C@H](C)O1 [epirubicin] | 1.59 |
| CC(=O)c1c(C)c2cnc(Nc3ccc(N4CCNCC4)cn3)nc2n(C2CCCC2)c1=O [palbociclib] | 1.66 |
| O=C(c1cc(Cc2n[nH]c(=O)c3ccccc23)ccc1F)N1CCN(C(=O)C2CC2)CC1 [olaparib] | 1.55 |

Same assay, conditions: 0.1 µM; days in culture: 223

| Compound | CTG-3D luminescence at 96 h |
| --- | --- |
| CCOc1ccn(-c2ccc(F)cc2)c(=O)c1C(=O)Nc1ccc(Oc2ccnc(N)c2Cl)c(F)c1 [ASLAN002] | 2.8 |
| C[C@@H](Nc1cc(F)cc(F)c1)c1cc(C(=O)N(C)C)cc2c(=O)cc(N3CCOCC3)oc12 [AZD-8186] | 1.98 |
| COc1cccc2c1C(=O)c1c(O)c3c(c(O)c1C2=O)C[C@@](O)(C(=O)CO)C[C@@H]3O[C@H]1C[C@H](N)[C@@H](O)[C@H](C)O1 [epirubicin] | 1.3 |
| CC(=O)c1c(C)c2cnc(Nc3ccc(N4CCNCC4)cn3)nc2n(C2CCCC2)c1=O [palbociclib] | 1.94 |
| O=C(c1cc(Cc2n[nH]c(=O)c3ccccc23)ccc1F)N1CCN(C(=O)C2CC2)CC1 [olaparib] | 1.65 |

Same assay, conditions: 0.1 µM; days in culture: 238

| Compound | CTG-3D luminescence at 96 h |
| --- | --- |
| CCOc1ccn(-c2ccc(F)cc2)c(=O)c1C(=O)Nc1ccc(Oc2ccnc(N)c2Cl)c(F)c1 [ASLAN002] | 1.42 |
| C[C@@H](Nc1cc(F)cc(F)c1)c1cc(C(=O)N(C)C)cc2c(=O)cc(N3CCOCC3)oc12 [AZD-8186] | 1.41 |
| COc1cccc2c1C(=O)c1c(O)c3c(c(O)c1C2=O)C[C@@](O)(C(=O)CO)C[C@@H]3O[C@H]1C[C@H](N)[C@@H](O)[C@H](C)O1 [epirubicin] | 0.9 |
| CC(=O)c1c(C)c2cnc(Nc3ccc(N4CCNCC4)cn3)nc2n(C2CCCC2)c1=O [palbociclib] | 1.48 |
| O=C(c1cc(Cc2n[nH]c(=O)c3ccccc23)ccc1F)N1CCN(C(=O)C2CC2)CC1 [olaparib] | 1.53 |

Same assay, conditions: 0.1 µM; days in culture: 252

| Compound | CTG-3D luminescence at 96 h |
| --- | --- |
| CCOc1ccn(-c2ccc(F)cc2)c(=O)c1C(=O)Nc1ccc(Oc2ccnc(N)c2Cl)c(F)c1 [ASLAN002] | 2.01 |
| C[C@@H](Nc1cc(F)cc(F)c1)c1cc(C(=O)N(C)C)cc2c(=O)cc(N3CCOCC3)oc12 [AZD-8186] | 1.81 |
| COc1cccc2c1C(=O)c1c(O)c3c(c(O)c1C2=O)C[C@@](O)(C(=O)CO)C[C@@H]3O[C@H]1C[C@H](N)[C@@H](O)[C@H](C)O1 [epirubicin] | 1.68 |
| CC(=O)c1c(C)c2cnc(Nc3ccc(N4CCNCC4)cn3)nc2n(C2CCCC2)c1=O [palbociclib] | 1.79 |
| O=C(c1cc(Cc2n[nH]c(=O)c3ccccc23)ccc1F)N1CCN(C(=O)C2CC2)CC1 [olaparib] | 2 |

Same assay, conditions: 1 µM; days in culture: 223

| Compound | CTG-3D luminescence at 96 h |
| --- | --- |
| CCOc1ccn(-c2ccc(F)cc2)c(=O)c1C(=O)Nc1ccc(Oc2ccnc(N)c2Cl)c(F)c1 [ASLAN002] | 1.5 |
| C[C@@H](Nc1cc(F)cc(F)c1)c1cc(C(=O)N(C)C)cc2c(=O)cc(N3CCOCC3)oc12 [AZD-8186] | 1.44 |
| COc1cccc2c1C(=O)c1c(O)c3c(c(O)c1C2=O)C[C@@](O)(C(=O)CO)C[C@@H]3O[C@H]1C[C@H](N)[C@@H](O)[C@H](C)O1 [epirubicin] | 0.154 |
| CC(=O)c1c(C)c2cnc(Nc3ccc(N4CCNCC4)cn3)nc2n(C2CCCC2)c1=O [palbociclib] | 1.21 |
| O=C(c1cc(Cc2n[nH]c(=O)c3ccccc23)ccc1F)N1CCN(C(=O)C2CC2)CC1 [olaparib] | 1.36 |

Same assay, conditions: 1 µM; days in culture: 238

| Compound | CTG-3D luminescence at 96 h |
| --- | --- |
| CCOc1ccn(-c2ccc(F)cc2)c(=O)c1C(=O)Nc1ccc(Oc2ccnc(N)c2Cl)c(F)c1 [ASLAN002] | 1.76 |
| C[C@@H](Nc1cc(F)cc(F)c1)c1cc(C(=O)N(C)C)cc2c(=O)cc(N3CCOCC3)oc12 [AZD-8186] | 1.7 |
| COc1cccc2c1C(=O)c1c(O)c3c(c(O)c1C2=O)C[C@@](O)(C(=O)CO)C[C@@H]3O[C@H]1C[C@H](N)[C@@H](O)[C@H](C)O1 [epirubicin] | 0.391 |
| CC(=O)c1c(C)c2cnc(Nc3ccc(N4CCNCC4)cn3)nc2n(C2CCCC2)c1=O [palbociclib] | 1.87 |
| O=C(c1cc(Cc2n[nH]c(=O)c3ccccc23)ccc1F)N1CCN(C(=O)C2CC2)CC1 [olaparib] | 1.9 |

Same assay, conditions: 1 µM; days in culture: 252

| Compound | CTG-3D luminescence at 96 h |
| --- | --- |
| CCOc1ccn(-c2ccc(F)cc2)c(=O)c1C(=O)Nc1ccc(Oc2ccnc(N)c2Cl)c(F)c1 [ASLAN002] | 2.08 |
| C[C@@H](Nc1cc(F)cc(F)c1)c1cc(C(=O)N(C)C)cc2c(=O)cc(N3CCOCC3)oc12 [AZD-8186] | 1.91 |
| COc1cccc2c1C(=O)c1c(O)c3c(c(O)c1C2=O)C[C@@](O)(C(=O)CO)C[C@@H]3O[C@H]1C[C@H](N)[C@@H](O)[C@H](C)O1 [epirubicin] | 0.516 |
| CC(=O)c1c(C)c2cnc(Nc3ccc(N4CCNCC4)cn3)nc2n(C2CCCC2)c1=O [palbociclib] | 1.79 |
| O=C(c1cc(Cc2n[nH]c(=O)c3ccccc23)ccc1F)N1CCN(C(=O)C2CC2)CC1 [olaparib] | 1.78 |

Same assay, conditions: 10 µM; days in culture: 223

| Compound | CTG-3D luminescence at 96 h |
| --- | --- |
| CCOc1ccn(-c2ccc(F)cc2)c(=O)c1C(=O)Nc1ccc(Oc2ccnc(N)c2Cl)c(F)c1 [ASLAN002] | 1.49 |
| C[C@@H](Nc1cc(F)cc(F)c1)c1cc(C(=O)N(C)C)cc2c(=O)cc(N3CCOCC3)oc12 [AZD-8186] | 1.93 |
| COc1cccc2c1C(=O)c1c(O)c3c(c(O)c1C2=O)C[C@@](O)(C(=O)CO)C[C@@H]3O[C@H]1C[C@H](N)[C@@H](O)[C@H](C)O1 [epirubicin] | 0.0393 |
| CC(=O)c1c(C)c2cnc(Nc3ccc(N4CCNCC4)cn3)nc2n(C2CCCC2)c1=O [palbociclib] | 1.61 |
| O=C(c1cc(Cc2n[nH]c(=O)c3ccccc23)ccc1F)N1CCN(C(=O)C2CC2)CC1 [olaparib] | 1.31 |
